Non-standard residues stand in square brackets, D forms with d. Residues, ends and D or L forms follow the SMILES beside them. ξ: configuration not given here. *: point of attachment. Asu = N[C@@H](CCCCCC(=O)O)C(=O)O; ξPip = O=C(O)C1CCCCN1; NHOH = ON*
Columns and labels:
[1] = system: mouse malignant melanoma B16 cell line; assay: Cell proliferation inhibition (72 hours); format: cell-based; details: read-out: 50% proliferation inhibiting concentration B16 (nM) mean
From the text: (§1) In order to verify the action of the cyclic tetrapeptide derivative according to the present invention in inhibiting cell proliferation in cancerized cells, the action on the proliferation of the aforementioned B16/BL6 cells was investigated. The evaluation of cell proliferation rates was done utilizing a commercially available measuring kit, specifically, from Promega under the trade name CellTiter 96 Aqueous Non-Radioactive Proliferation Assay Kit. In the measuring kit, the amount of products through reduction of a reagent tetrazolium compound (3-(4,5-dimethylthiazol-2-yl)-5-(3-carboxymethoxyphenyl)-2-(4-sulfophenyl)-2H-tetrazolium, inner salt; MTS) by viable animal cells is determined by detecting spectrophotometrically the color generated from the products. Since the amount of products is proportional to the amount of viable cells, this kit is utilized to evaluate the amount of viable cells.
(§2) According to the procedure of Test Example 1, B16/BL6 cells are inoculated in a 96 well microplate and cultured for 24 hours. Then, 10 μl of a solution of the source solution of a compound to be tested which has been diluted to a predetermined amount per well is added. Thereafter, culture is continued for additional 48 hours and 20 μl of a reagent solution in the aforementioned CellTiter 96 Aqueous Non-Radioactive Proliferation Assay Kit is then added. After incubation is continued at 37° C. for 1 hour, the amount of color generation is measured as an absorbance at 490 n musing a microplate reader.
(§3) The amount of cell proliferation of a group to which a compound to be tested is added is expressed in a relative value as compared to the standard cell proliferation (100%) in a control group to which no compound to be tested is added. For each compound tested, the amounts of cell proliferation were measured at different concentrations of addition and the dependence of the quantitative cell proliferation on the concentration of addition was investigated. From the results, a concentration of addition at which the amount of cell proliferation was inhibited by 50% relative to the amount of cell proliferation in the control group without addition was determined.
(§4) The test method was in accordance with the above-mentioned procedure, except that the period of incubation after the addition of a compound was 72 hours.
(§5) As illustrative examples, results are shown for an evaluation using mouse malignant melanoma B16/BL6 and B16 cell lines; leukemia L1210 cell line, colon cancer Colon26 cell line, and liver cancer MH134 cell line as cancer cells. For the cell proliferation inhibiting action of each compound tested for these cancer cells, 50% proliferation inhibiting concentrations are shown in Table 4.

B16/BL6 cells [2] = assay: Inhibitory effect on histone deacetylation in cells (AUT gel electrophoresis); format: cell-based, mouse; details: Example 1 added at 10 μM, trichostatin A at 1 μM; 6 hours; histone H4 bands
Procedure: In a culture flask of 75 ml in capacity, 1.5×10^5 B16/BL6 cells were inoculated and preliminarily cultured for 4 days. Then, a given amount of a compound to be tested was added and subsequently cultured for 6 hours. Thereafter, cells were striped using 0.25% trypsin enzyme solution, washed once with PBS and stored temporarily at −80° C.
From this cell sample, histone was separated from chromatin and collected together with other proteins in a conventional manner. The resulting protein sample was subjected to AUTgel electrophoresis in an amount of 1 μg/lane. Said gel was stained with silver to detect bands separated by the migration.
The result on a control group in which no compound to be tested was added is also shown.

B16/BL6 cells [3] = assay: Inhibitory effect on cell proliferation (MTS, 48 hours); format: cell-based, mouse; details: 48 hours after addition; read-out: 50% inhibiting concentration
From the text: as §1, §2, §3

[4] = system: colon cancer Colon26 cell line; assay: Cell proliferation inhibition (72 hours); format: cell-based, mouse; details: read-out: 50% proliferation inhibiting concentration Colon 26 (nM) mean
From the text: as §1, §2, §3, §4, §5

leukemia L1210 cell line = assay: Cell proliferation inhibition (72 hours); format: cell-based, mouse; details: read-out: 50% proliferation inhibiting concentration L1210 (nM) mean
From the text: as §1, §2, §3, §4, §5

[5] = system: liver cancer MH134 cell line; assay: Cell proliferation inhibition (72 hours); format: cell-based, mouse; details: read-out: 50% proliferation inhibiting concentration MH134 (nM) mean
From the text: as §1, §2, §3, §4, §5

B16/BL6 cells [6] = assay: MHC class-I molecule expression promoting activity; format: cell-based, mouse; details: for MHC class-I molecule expression promoting action: FIGS. 3 and 4, dependence on concentration of addition; for Twice Promoting Concentration Cx2: concentration at which MHC class-I expression is twice that without addition; for Twice Promoting Concentration Cx2 / conc. for 2-fold expression (nM) mean: 72 hours; for conc. for 2-fold expression (nM) mean: mean of a plurality of assays
[7] = system: mouse malignant melanoma B16/BL6 cell line; format: cell-based; details: 72 hours; read-out: 50% proliferation inhibiting concentration B16/BL6 (nM) mean
From the text: as §1
as §2, with “Then, 10 μl of a solution of the source solution of a compound to be tested which has been diluted to a predetermined amount per well is added.” left out
as §3, with “investigated.” for “investigated. From the results, a concentration of addition at which the amount of cell proliferation was inhibited by 50% relative to the amount of cell proliferation in the control group without addition was determined.”
as §4

histone deacetylase = assay: Histone deacetylase enzyme inhibiting activity, synthetic peptide substrate; format: biochemical, mouse; details: enzyme from B16/BL6 cells; [3H]acetylated histone H4 peptide; 37° C. 3 hours
Procedure: The preparation of histone deacetylase was performed essentially according to the method of Yoshida et al. (J. Biol. Chem., 265,17174-17179, 1990). The enzyme to be used was partially purified from B16/BL6 cells. The cells were suspended in HDA buffer (15 mM potassium phosphate, 5% glycerol, 0.2 mM EDTA, […], pH 7.5), homogenized and centrifuged (2500×g, 10 min) to collect the nuclei, which in turn were homogenized in the same buffer containing 1 M (NH4)2SO4. After ultrasonic disruption and centrifugation, the concentration of (NH4)2SO4 in the collected supernatant was increased to 3.5 M to precipitate histone deacetylase. This precipitate was redissolved in HDA buffer, subjected to gel filtration to replace the solvent with HDA buffer, and used as a crude histone deacetylase enzyme solution.
As a substrate, a synthetic substrate peptide, [^3H]acetylated histone H4 peptide was used. This [^3H]acetylated histone H4 peptide was obtained by synthesizing the N-terminal peptide of histone H4; […] (the C-terminal being cysteine) and radio-acetylating with ^3H -acetic anhydride.
An assay was performed by incubating the synthetic substrate solution and the enzyme solution at 37° C. for 3 hours in the presence of a compound to be tested (reaction volume, 100 μl). The reaction was stopped by adding 25 μl of 1 M HCl and 0.2 M acetic acid and [^3H]acetate excised by the enzyme reaction was extracted with ethyl acetate for radioactivity measurement. As a control group, the same procedure was repeated without addition of any test compound to the reaction system. The inhibiting activity was expressed by a concentration at which the histone deacetylase enzyme activity in the control group was inhibited by 50% (50% inhibiting concentration).

[8] = biological target: Mouse histone deacetylase; format: biochemical
Procedure: In an enzyme system using a radio-labelled acetylated histone as a substrate, histone deacetylase enzyme inhibiting activity was evaluated. The basic conditions were in accordance with the method of Yoshida et al. (J. Biol. Chem., 265, 17174-17179, 1990).
Mouse histone deacetylase to be used was partially purified from FM3A cells. Cells were suspended in HDA buffer (15 mM potassium phosphate, 5% glycerol, 0.2 mM EDTA, pH 7.5), homogenized and centrifuged (35000×g, 10 min) to collect the nuclei which in turn were homogenized in the same buffer containing 1 M (NH4)2SO4. After ultrasonic disruption and centrifugation, the concentration of (NH4)2SO4 in the supernatant was increased to 3.5 M to precipitate deacetylase enzyme proteins. This precipitate was redissolved in HDA buffer, dialyzed against HDA buffer, applied to DEAE-cellulose column and eluted in NaCl gradient. Active fractions were used as a histone deacetylase enzyme solution.
As a substrate, [^3H]acetyl histone was used. In a culture solution of FM3A cells in the presence of 5 mM sodium n-butyrate, [^3H]acetate was added, followed by incubation for 30 minutes to radio-label the histone. The histone was prepared in a conventional manner and used as a substrate solution.
An assay was performed by adding a compound to be tested at a given concentration while using a no-addition control group, and by incubating the substrate solution and the enzyme solution at 37° C. for 10 minutes (reaction volume, 100 μl). The enzyme reaction was stopped by adding 10 μl of concentrated hydrochloric acid and the excised [^3H]acetate was extracted with ethyl acetate for radioactivity measurement. The inhibiting activity was expressed by a concentration at which the enzyme activity in the control group was inhibited by 50% (50% inhibiting concentration).

Compound | IC50 [1] [nM] | inhibitory effect on histone deacetylation (B16/BL6 cells [2]) | IC50 (B16/BL6 cells [3]) [nM] | IC50 [4] [nM] | IC50 (leukemia L1210 cell line) [nM] | IC50 [5] [nM] | MHC class-I molecule expression promoting action (B16/BL6 cells [6]) | MHC class-I molecule expression promoting activity (B16/BL6 cells [6]; allowed to act on animal cells (summary statement)) | Twice Promoting Concentration Cx2 (B16/BL6 cells [6]) [nM] | IC50 [7] [nM] | IC50 (histone deacetylase) [nM] | conc. for 2-fold expression (nM) mean (B16/BL6 cells [6]) [nM] | IC50 [8] [nM]
CC(/C=C/C(=O)NO)=C\[C@@H](C)C(=O)c1ccc(N(C)C)cc1 [Trichostatin A, trichostatin A, reference compound] | 621 | a total of 5 discrete bands are clearly seen in this region | 14.3 | 139 | 12.4 | 41.7 | MHC class-I molecule expression promoting action was confirmed | promotes the expression of MHC class-I molecule | 3.35 | 19.1 | 2.55 |  | 
CC(C)C[C@@H]1NC(=O)[C@@H](Cc2ccccc2)NC(=O)[C@H](CCCCCC(=O)NO)NC(=O)C2CCCCN2C1=O (stereo partly drawn) [HDA-12, cyclo(-Asu(NHOH)-D-Phe-Leu-Pip-)] (cyclo([Asu](NHOH)[dF]L[ξPip])) | 262 |  | 12.3 | 149 | 28.3 | 112 | exhibited MHC class-I molecule expression promoting action |  | 3.86 | 9.44 |  | 2.75 | 
O=C(CCCCC[C@@H]1NC(=O)[C@H]2CCCN2C(=O)[C@H](Cc2ccccc2)NC(=O)[C@H](Cc2ccccc2)NC1=O)NO [HDA-5, cyclo(-Asu(NHOH)-Phe-Phe-D-Pro-)] (cyclo([Asu](NHOH)FF[dP])) | 3370 | inhibits the deacetylation of histone | 210 | 2160 | 500 | 1660 | exhibited MHC class-I molecule expression promoting action |  | 135 | 257 | 6.03 | 98.2 | 2.18
